# What was measured:
# LXRα = LXRα expression in HepG2 cells; format: cell-based; settings: HepG2, 10^−9-10^−5 M
# Experimental: HepG2 cells were treated with various concentrations of drugs for 24 hours. […] All of the fractionated protein solutions were stored at −80° C. until analysis. To measure the expression levels of proteins by drugs, the total cell protein was extracted after incubation with treatments for 24 hours and then Western blotting analysis was performed as described previously.
# p-HSL = test: Table 3 p-HSL (% of control); format: cell-based; settings: control group = 100 (%)
# TNF-α = test: IHC staining of TNF-α in epididymal fat pads; format: in vivo, mice; settings: protection, 2.5 mg/kg/day
# Experimental: (§1) For IHC of MMP-9/TNFα, HSL/p-HSL/ATGL and eNOS/IL-10, antigen retrieval of de-paraffinated sections was performed in Dako target retrieval solution, pH 9.0, in a vegetable steamer followed by the quenching of endogenous peroxidase activity with 3.0% H2O2 in methanol. Sections were then incubated with specific primary antibodies overnight at 4° C. in a humidified chamber. The antibodies used included rabbit polyclonal anti-eNOS (1:50 dilution) (Abcam, Cambridge, UK) or rabbit monoclonal anti-cleaved caspase-3 (1:50 dilution) (Cell Signaling, USA). The sections were then examined using a DAKO REAL EnVision™ Detection System kit (DAKO, Carpinteria, Calif.) and counterstained with hematoxylin. Images were obtained through a Nikon Eclipse TE200-S microscope.
# ApoA-I = ApoA-I expression in HepG2 cells; format: cell-based; settings: HepG2, 10^−9-10^−5 M
# Experimental: (§2) HepG2 cells were treated with various concentrations of drugs for 24 hours. Reactions were terminated by washing twice with cold PBS, and the cells were then harvested, Proteins in the whole-cell lysate were homogenized in an ice-cold lysis buffer and a protease inhibitor (Sigma-Aldrich, St. Louis, Mo., U.S.A.). The homogenate was centrifuged at 90, 000 g for 15 minutes at 4° C., and supernatant was recovered as the total cellular protein. Cytosolic and membrane fractions of HepG2 cells were prepared using a. CNM (Cytosol Nuclear Membrane) compartment protein extraction kit (BioChain Institute Inc., Hayward, Calif., U.S.A.) according to the manufacturer's instructions. All of the fractionated protein solutions were stored at −80° C. until analysis. To measure the expression levels of proteins by drugs, the total cell protein was extracted after incubation with treatments for 24 hours and then Western blotting analysis was performed as described previously.
# HMG CoA reductase = HMG CoA reductase expression in HepG2 cells (Western blotting); format: cell-based
# Experimental: The HepG2 hepatoma cell line was purchased from the American Type Culture Collection (ATCC; Manassas, Va., U.S.A.). Cells were cultured in DMEM. The culture media was supplemented with 5% heat-Inactivated FBS, penicillin (100 U/mL) and streptomycin (100 μg/mL). Cells were grown in a humidified atmosphere containing 5% CO2 at 37° C., in which the oxygen tension in the incubator was held at 140 mmHg (20% O2, v/v; normoxic conditions).
# as §2
# eNOS = test: IHC staining of eNOS in epididymal fat pads; format: in vivo, mice; settings: protection, 2.5 mg/kg/day
# Experimental: as §1
# PKA = PKA expression and immunoreactivity in HepG2 cells; format: cell-based
# ABCA1 = ABCA1 expression in HepG2 cells; format: cell-based
# Experimental: as §2
# ATGL = test: IHC staining of ATGL in steatohepatitis liver; format: in vivo, mice; settings: more prominent in protection than treatment groups
# Experimental: (§3) In the 14-week experiment, mice were fed a HFD from week 1 to week 14. During the 3 month experiments, KMUP-1 HCl (2.5 mg) was added to 200 ml tap water and) and drink for 14 weeks or for the last 6 weeks on mice or obese mice fed HFD, separately. 5 mice had free access to drinking water from week 1 to week 14 (protective group) or from week 8 to week 14 (treatment group). Tap water was used to normalize mineral nutrition (Scheme A).
# as §1
# PPARγ = PPARγ expression in HepG2 cells; format: cell-based
# Experimental: as §2
# epididymal fat pads = test: H&E staining, weight and cell diameter of epididymal fat pads; format: in vivo, mice
# Experimental: as §3
# (§4) Mice liver and epididymal fat pads were cut and soaked in formalin, dehydrated through graded alcohols and embedded in paraffin. Specimens of liver tissues and epididymal fat pads fixed with formalin (4%) were embedded in paraffin for one hour at 4° C., cut into […] sections, and subjected to H&E staining before examination by light microscope. In heart tissues, the 4-μm-thick paraffin sections were cut from paraffin-embedded tissue blocks and de-paraffinized by immersion in xylene and rehydrated. The slices were then dyed with H&E. After gently rinsing with water, each slide was dehydrated through graded alcohols and finally soaked in xylene twice.
# mice fed a HFD = test: HFD-fed mice, 14-week experiment: body weight, liver morphology, H&E, oil globulets; format: in vivo
# Experimental: as §3
# The diameter of the white bar in the photograph was standardized at 100 μM for measuring the specific diameter of oil globulets in a whole liver slice, observed by microscope, with the aid of Powerpoint PC computer software (Microsoft®, USA) and printed out by a Hewlett-Packard® printer (USA). An increase in oil globulet diameter and cell number indicated increasing liver steatosis, i.e. steaotohepatitis. In contrast, decrease in diameter and the number of fat cells indicated the inhibition of steaotohepatitis. […] Hematoxylin-eosin (H&E) and […] staining of liver were used to assess oil globulet numbers under a microscope.
# as §4
# Hematoxylin-eosin (H&E) and IHC staining of liver were used to assess oil globulet numbers under a microscope. A 100 μM white bar was used to determine oil globule sizes in the liver. Oil globulets in a cell were counted from larger to smaller until size limitations were reached. Increases of oil globulet diameter and number indicated increasing liver steatosis. In contrast, a decrease in oil globulet diameters and numbers could indicate the inhibition of liver steatosis. Oil globulets were measured using a Nikon Eclipse TE200-S microscope, aided by Powerpoint computer software (Microsoft®) and printed by a HP® printer to measure the diameter and number of oil globulets on paper. Counting: of oil globules was performed from larger to smaller ones until the observation reached its limit.
# [1] = HepG2, KMUP-1 10^−9-10^−5 M with FPP or GGPP
# [2] = HepG2, simvastatin, KMUP-1, Y27632 10^−5M, C3 exoenzyme
compound,measurement,setting,value
"Cn1c(=O)c2c(ncn2CCN2CCN(c3ccccc3Cl)CC2)n(C)c1=O [KMUP-1, 7-[2-[4-(2-chlorophenyl)piperazinyl]ethyl]-1,3-dimethyl xanthine]",LXRα expression,LXRα,concentration-dependently increased
same,p-HSL,p-HSL; 0.1 μM,120.7 ± 15.3%
same,p-HSL,p-HSL; 1.0 μM,138.6 ± 14.7%
same,p-HSL,p-HSL; 10 μM,144.6 ± 12.3%
same,IHC staining of TNF-α in epididymal fat pads,TNF-α,inhibited
same,ApoA-I expression,ApoA-I,concentration-dependently increased
same,mevalonate (100 μM)-inhibited HMG CoA reductase expression,"HMG CoA reductase; HepG2, 10^−5M",prevented
same,HMG CoA reductase expression,"HMG CoA reductase; HepG2, serum/vehicle-containing medium, 10^−9-10^−5M, 24 hours",concentration-dependently increased
same,IHC staining of eNOS in epididymal fat pads,eNOS,inhibited
same,PKA immunoreactivity (green fluorescence),PKA,increased
same,oxLDL (200 μg/mL)-induced reduction of PKA expression,"PKA; 1, 10, 100 μM",reversed
same,PKA protein expression,"PKA; 10, 20, 40 µM, in the presence of LDL (500 μg/mL)",could not significantly affect
same,expression of ABCA1,"ABCA1; HepG2, 10^−9-10^−5 M",increased
same,FPP- or GGPP-suppressed expression of ABCA1,ABCA1; [1],reversed
same,ABCA1 expression (FIG. 24D),ABCA1; [2],increased
same,"ATGL lipolysis (IHC, liver)",ATGL,induced
same,increase of PPARγ,PPARγ; HepG2,2-3 fold
same,expression of PPARγ,"PPARγ; HepG2, 10^−9-10^−5 M",increased
same,FPP- or GGPP-suppressed expression of PPARγ,PPARγ; [1],reversed
same,PPARγ expression (FIG. 24C),PPARγ; [2],increased
same,epididymal fat pad weight,epididymal fat pads; 2.5 mg/kg/day for 14 weeks,significantly reduced
same,fat cell diameter,epididymal fat pads; 2.5 mg/kg/day for 14 weeks,significantly reduced
same,HFD-induced hypertrophy/hyperplasia of epididymal fat pads (H&E),"epididymal fat pads; protection, 2.5 mg/kg",inhibited
same,fat globules and Mallory's hyaline bodies (H&E staining of liver),"mice fed a HFD; oral 2.5 mg/kg, last 6 weeks/14 weeks",reduced
same,oil globulet number and changes of oil globulet diameter in liver,mice fed a HFD; treatment and protection groups,sharply reduced

# Reference: patent US20150359798A1, “PIPERAZINYL DERIVATIVE REDUCES HIGH-FAT DIET-INDUCED ACCUMULATION OF FAT IN THE LIVERS, […]” (priority 2011, published 2015)
